Consider 1 compound from patent US20240423937A1, “METHODS OF TREATING PAIN AND USES THEREOF” (University of Tennessee Research Foundation, priority 2021, published 2024).

One data set has as its system Dutch belted rabbits. Description: Single topical dose IOP lowering in Dutch belted rabbits. Conditions: single drop. In kind it is in vivo, rabbit. The method, then:
Non-limiting exemplary data: We made a discovery that can make PRG effective in treating vision loss in glaucoma. In addition to its presence in the anterior segment (FIG. 2), CACNA2D1 is also localized to RGCs (FIGS. 3A&B), as well as the ON (FIG. 3C). […] At 24 hours after dosing, IOP is still reduced by >20%.
Moreover, the combined effect of all three layers of our W/O/W ME is critical for enhancing the efficacy of PRG. […] Using this same model, we will evaluate our optimized formulations from Test 1.1.
Research Design and Methods: Dutch belted rabbits (Envigo Rabbitry; formerly Covance) will be used in this single-dose design study. Rabbits from this rabbitry can have higher baseline IOP values than those purchased from other rabbitries. Rabbits (equally balanced between males and females) will be acclimated to handling and IOP measurements for at least seven days before initiation of the study. Slit-lamp biomicroscopic and fundoscopic examinations will be performed before and after the study. Our top three formulations from Test 1.1 will be tested in this model using our methods^12. The IOP of both eyes will be measured using a rebound tonometer (Tono-Pen AVIA Vet, Reichert) immediately before the formulation application (baseline, 8 am) and at hourly time intervals after application until the IOP returns to baseline. Using a sterile micropipette tip, thirty microliters of the formulation containing PRG ME or blank control will be instilled topically into one eye of each rabbit, while the fellow eye will receive the formulation vehicle, and therefore serve as controls. Rabbits will be dosed daily at 8 am for 21 days, and IOP collected at 8 am (immediately pre-dosing) and at the time at which the maximum IOP reduction is measured (Tmax) using our methods^12. Curves similar to FIG. 16 will be generated. Biocompatibility of the antioxidant-containing formulations will be assessed using with slit lamp biomicroscopy as in FIG. 17. […]

Another data set deals with BXD29 mice. Description: Daily topical dosing of BXD29 mice for 6 weeks (IOP, optic nerve axons). It counts as in vivo, mouse. The source says:
Objective: An obstacle in this study is the in vivo assessment of any direct neuroprotective effects of PRG that are independent of IOP lowering. […] These characteristics make BXD29 ideal for evaluating the direct neuroprotective properties of PRG on RGCs by eliminating indirect effects that would be mediated through IOP reduction.
We have evidence to show, without wishing to be bound by theory, that topical dosing with our PRG ME is neuroprotective to RGC axons in the ON. We dosed BXD29 mice daily with PRG ME beginning at 5 weeks of age (FIG. 9A) before ON degeneration was marked. […] In contrast, ON from mice dosed with unmedicated ME had loss of axon profiles and increased areas of debris (FIG. 9C). The studies will evaluate the role of PRG as a RGC neuroprotectant and define its cellular mechanism of action.

The conditions of data set [1]: not told; cited from earlier work.
The next data set addresses CACNA2D2 (Homo sapiens, UniProt Q9NY47). Conditions: cited from earlier work.
In data set [2] the test system is γ-aminobutyric acid (GABA) receptors. To be noted: cited from earlier work.
The target of another data set is CACNA2D1 (Homo sapiens, UniProt P54289). To be noted: cited from earlier work.
CACNA2D1, sequence (P54289 25-1103): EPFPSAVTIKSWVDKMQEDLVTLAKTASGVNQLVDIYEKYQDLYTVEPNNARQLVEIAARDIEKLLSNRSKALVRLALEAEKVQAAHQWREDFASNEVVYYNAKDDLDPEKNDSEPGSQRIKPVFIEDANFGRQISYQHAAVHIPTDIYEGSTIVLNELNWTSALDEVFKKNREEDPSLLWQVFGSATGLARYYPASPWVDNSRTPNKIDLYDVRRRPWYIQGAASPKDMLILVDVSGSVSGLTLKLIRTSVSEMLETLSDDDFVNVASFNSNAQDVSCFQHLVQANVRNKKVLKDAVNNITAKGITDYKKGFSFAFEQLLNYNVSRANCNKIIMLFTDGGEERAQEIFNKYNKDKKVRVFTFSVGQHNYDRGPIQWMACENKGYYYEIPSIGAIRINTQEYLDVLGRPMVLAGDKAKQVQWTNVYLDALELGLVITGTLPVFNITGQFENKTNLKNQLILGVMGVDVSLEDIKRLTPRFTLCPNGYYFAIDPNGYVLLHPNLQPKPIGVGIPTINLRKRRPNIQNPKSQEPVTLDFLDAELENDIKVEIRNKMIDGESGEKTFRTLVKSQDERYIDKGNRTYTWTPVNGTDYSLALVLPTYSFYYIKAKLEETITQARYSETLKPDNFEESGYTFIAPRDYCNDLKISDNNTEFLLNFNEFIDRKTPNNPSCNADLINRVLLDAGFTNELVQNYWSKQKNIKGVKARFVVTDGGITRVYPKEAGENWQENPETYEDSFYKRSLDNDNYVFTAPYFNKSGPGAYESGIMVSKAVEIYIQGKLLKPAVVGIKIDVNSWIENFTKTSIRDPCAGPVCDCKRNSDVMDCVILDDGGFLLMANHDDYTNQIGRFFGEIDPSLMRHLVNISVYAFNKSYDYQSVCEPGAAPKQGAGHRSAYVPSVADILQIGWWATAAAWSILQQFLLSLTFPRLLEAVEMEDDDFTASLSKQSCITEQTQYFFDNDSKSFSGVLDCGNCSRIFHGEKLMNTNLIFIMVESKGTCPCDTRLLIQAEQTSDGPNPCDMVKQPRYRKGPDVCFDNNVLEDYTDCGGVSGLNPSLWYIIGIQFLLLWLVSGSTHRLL
Data set [3] in a line: Topical pregabalin IOP lowering, aqueous / without microemulsion. In kind it is in vivo. An excerpt: As a bidirectional component of our study, we corroborated an imputed single-nucleotide polymorphism (SNP) in CACNA2D1 within a human POAG population. Immunohistochemistry studies in humans, rabbits, and mice indicate that CACNA2D1 is located in the ciliary body (CB) and outflow structures (FIG. 2), both of which can influence IOP. […] These findings are consistent with earlier findings that implicated Ca^2+ flux as a regulator of IOP through actions in both the CB and outflow structures^13,14. This is highly significant because few approved IOP-lowering drugs act on both the inflow and outflow facilities, and that we can be able to clarify the implicated but yet unproven role of Ca^2+ flux on inflow and outflow control. On the therapeutic side, because the amplitude and duration of PRG-mediated IOP reduction in our studies were limited (17% IOP reduction that returns to baseline at 6 hr)^15, we then engineered a new topical extended release microemulsion (ME) formulation to increase PRG efficacy and duration of action^12. […] These findings indicate the development of PRG as a new class of glaucoma therapeutics with a MOA distinct from current approved IOP-lowering medications.
However, the amplitude and duration of response were limited and unpractical for clinical use. To increase the efficacy of PRG as an IOP-lowering drug, we engineered a new microemulsion topical formulation^12. Our formulation was designed as a water-in-oil-in water microemulsion with 40% and 60% of the PRG in the innermost and outermost aqueous phases, respectively. Compartmentalization of PRG in two aqueous phases supports both a rapid onset and long duration of IOP-lowering action. Drug release from the outermost aqueous phase is fast, allowing for rapid IOP reduction. To be released from the innermost aqueous phase, however, PRG must pass through two interfaces—the inner water/oil interface and the outer oil/water interface—after which it must diffuse through the viscous polymer solution that constitutes the outmost aqueous phase of our multilayered ME (FIG. 12). Collectively the movement across both interfaces slows movement of PRG from our formulation and supports the extended IOP-lowering effect. After diffusion from the outermost polymer, PRG is available for absorption through the cornea. To ensure that the formulation will remain on the corneal surface for enough time to allow for the sustained release of the drug, the outermost hydrogel layer is prepared from Carbopol 981, which has excellent bio-adhesive properties.

The mark [4] stands for this setting: topical aqueous / initial PRG formulation.
Setting [5] is: with versus without the microemulsion, species not stated.

Entries after “also recorded” stand apart in the source; their conditions may differ. Where two headings read alike, the source gives them in different places.

CACNA2D2, sequence (Q9NY47 19-1150, species assumed): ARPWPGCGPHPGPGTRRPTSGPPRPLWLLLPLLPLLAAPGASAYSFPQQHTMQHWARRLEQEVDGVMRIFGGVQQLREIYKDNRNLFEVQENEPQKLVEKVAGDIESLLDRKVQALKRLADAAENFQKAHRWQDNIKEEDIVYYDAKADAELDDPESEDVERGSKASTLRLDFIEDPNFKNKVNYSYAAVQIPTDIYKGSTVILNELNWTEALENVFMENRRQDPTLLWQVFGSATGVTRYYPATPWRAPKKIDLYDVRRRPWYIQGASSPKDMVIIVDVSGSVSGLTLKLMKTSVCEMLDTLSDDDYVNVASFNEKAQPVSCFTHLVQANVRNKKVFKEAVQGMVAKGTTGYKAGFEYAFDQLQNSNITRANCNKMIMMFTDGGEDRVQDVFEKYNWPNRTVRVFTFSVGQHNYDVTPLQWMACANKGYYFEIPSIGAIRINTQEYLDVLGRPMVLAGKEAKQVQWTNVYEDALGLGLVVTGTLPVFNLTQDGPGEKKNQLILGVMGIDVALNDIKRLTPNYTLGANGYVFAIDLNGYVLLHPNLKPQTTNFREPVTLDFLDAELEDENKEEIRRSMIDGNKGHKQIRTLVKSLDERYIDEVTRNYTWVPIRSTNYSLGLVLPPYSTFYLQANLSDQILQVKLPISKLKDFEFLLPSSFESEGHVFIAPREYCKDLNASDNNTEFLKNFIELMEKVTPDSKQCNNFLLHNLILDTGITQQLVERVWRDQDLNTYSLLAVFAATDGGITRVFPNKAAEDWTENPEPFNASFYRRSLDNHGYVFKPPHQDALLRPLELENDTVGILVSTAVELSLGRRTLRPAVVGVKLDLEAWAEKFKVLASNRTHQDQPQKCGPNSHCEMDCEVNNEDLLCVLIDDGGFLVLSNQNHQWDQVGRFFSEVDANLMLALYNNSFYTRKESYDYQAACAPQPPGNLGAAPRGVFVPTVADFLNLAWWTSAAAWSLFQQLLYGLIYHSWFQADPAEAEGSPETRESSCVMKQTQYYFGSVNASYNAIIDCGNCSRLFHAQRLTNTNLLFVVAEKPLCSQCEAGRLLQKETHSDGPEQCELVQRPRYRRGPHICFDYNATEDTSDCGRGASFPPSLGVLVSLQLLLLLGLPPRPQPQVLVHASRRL

Take `CC(C)C[C@H](CN)CC(=O)O` [pregabalin]: in the data set on Dutch belted rabbits, the “AUC of IOP reduction” value was found to be 38 mmHg·hr, the “maximal % reduction in IOP” value was 30% and the “time at which IOP returns to baseline” value stood at 10 h. Also, the “optic nerve axon preservation” value in the data set with BXD29 mice (daily topical dosing for 6 weeks from 5 weeks of age) is listed as “prevents degeneration of axons in the ON even in the absence of a reduction in IOP”. Besides, the “IOP response of BXD29 mice” value with BXD29 mice (topical, up to 6 weeks of daily dosing) is recorded as “unresponsive”. The membrane permeability entry in data set [1] is “high membrane permeability”. On CACNA2D2, the “binding to CACNA2D2” value is “bind”. In data set [2], the “binding to GABA receptors” value is listed as “does not bind”. For the same compound, the “affinity / specificity for CACNA2D1” value on CACNA2D1 is “antagonist with specificity for CACNA2D1 and high specificity for CACNA2D1 and bind”. On CACNA2D1 (listed as PRG), the “affinity / specificity for CACNA2D1” value is “high affinity and specificity; also recorded: binds with high affinity”. Moreover, the “affinity / specificity for CACNA2D1” value on CACNA2D1 (listed as Pregabalin) was “high affinity and specificity”. Further, in data set [3] (setting [4]), the IOP reduction is recorded as 17% and the “return of IOP to baseline after dosing” value is 6 h. Besides, the “dose dependence of IOP lowering” value in data set [3] (topical dosing) is listed as “dose dependent manner”. In addition, in data set [3] (setting [5]), the IOP lowering entry was “about 20%” and the “return of IOP to baseline after dosing” value lay in the range of 8 to 10 h.
